Test results published in patent publication US20180140609A1, “USE OF (4-HYDROXY-2-METHYL-1,1-DIOXIDO-2H-BENZO[E][1,2]THIAZINE-3-YL)(NAPHTHALENE-2-YL) METHANONE IN THE PREVENTION AND/OR TREATMENT OF NON-ALCOHOLIC STEATOHEPATITIS” (PIERRE FABRE MEDICAMENT, priority 2015, published 2018).
Like-named read-outs stand apart in the source and are kept apart here.

How the values were obtained:
Assay type in all cases: in vivo
human 11β-HSD type 1 [1] = target: T1, human 11β-HSD type 1 (Homo sapiens, UniProt P28845); assay: Plasma bioactivity after single oral administration in C57BL/6N mice, read as inhibition of human 11β-HSD type 1 (SPA); conditions: for inhibition at 2.5 mg/kg: 2.5 mg/kg oral; for inhibition at 2.5 mg/kg / inhibition at 10 mg/kg: table with plasma levels; for inhibition at 10 mg/kg: 10 mg/kg oral
Description: (§1) The evaluation is made in on 4- to 6-week-old non-fasted male C57BL/6N strain mice. The compounds to be tested or the vehicle (0.5% methylcellulose in water, at 10 ml/kg) are administered orally; n=3 mice per treatment.
(§2) Blood samples are collected 1 h and 4 h after administration; the tubes are centrifuged to obtain plasma and frozen at −70° C. until bioanalysis. Plasma bioactivity (2% final volume) is analyzed by using the inhibition of human 11β-HSD type 1 as a detection system (SPA technology) for each compound at each dose tested. Percent inhibition (versus mice treated with carrier) is calculated for each dose.

[2] = Plasma level by LC/MS after single oral administration in C57BL/6N mice; conditions: parent molecule by LC/MS
Description: as §1, §2
Compound 1 is detected in the plasma of the treated mice and inhibits 11β-HSD type 1 as of 0.63 mg/kg. LC/MS analyses of plasma samples from the animals treated with Compound 1K show a much higher plasma level of the parent molecule than that found for Compound 1.

human 11β-HSD type 1 [3] = target: T1, human 11β-HSD type 1; assay: Bioactivity of inguinal white adipose tissue after single oral administration in C57BL/6N mice, read as inhibition of human 11β-HSD type 1 (SPA); conditions: mouse inguinal white adipose tissue extract
Description: Four hours post-administration, the mice are euthanized and inguinal white adipose tissue is taken and frozen at −70° C. until the day of bioanalyses. The white adipose tissue is homogenized in liquid nitrogen and then treated with acetonitrile (1 ml of distilled water for 4 ml of acetonitrile and 200 mg of inguinal white adipose tissue) to extract soluble substances. The acetonitrile fraction is collected, then dried, and the residue is dissolved in 1 ml of DMSO for 300 mg of white adipose tissue.
Compounds tested: the same as those of Example 2.

11β-HSD type 1 = assay: Inhibition of conversion of prednisone to prednisolone after single administration to cynomolgus monkeys; conditions: for inhibition of the prednisolone/prednisone ratio in animals that respond favorably: responders only; for inhibition of plasma prednisolone/prednisone ratio of AUC (30 minutes to 4 hours): prednisone 10 mg/kg 2 h later
Description: The protocol used is described by Bhat et al. (J. Pharmacol. Exp. Ther. 324, 299-305, 2008).
(§3) Briefly, the study is carried out in naive adult male cynomolgus monkeys fasted overnight. The 11β-HSD type 1 inhibitor or its vehicle (0.5% methylcellulose in water) is administered via nasogastric intubation. Two hours later, a challenge with orally administered prednisone (10 mg/kg) is performed and blood samples are taken regularly for 24 hours. These samples are centrifuged to obtain plasma and immediately frozen at −70° C. until bioanalysis. Plasma levels of prednisone, prednisolone and 11β-HSD type 1 inhibitors are measured by LC-MS/MS analytical methods.
(§4) The study is carried out over a period of 10 weeks. Profiles of plasma concentration as a function of time and areas under the curve are calculated using the trapezoidal method for all parameters.
The effect of Compound 1 is evaluated at three doses: 1.25, 5 and 20 mg/kg.
The effect of Compound 1K is evaluated at three doses: 20, 40 and 80 mg/kg. The protocol is quite similar to the preceding, except that only 5 blood samples were taken per monkey rather than 7. Compound 1K was also evaluated over a period of 10 weeks.
The 11β-HSD type 1 activity-dependent conversion of prednisone to prednisolone was evaluated. Compound 2K inhibits roughly 50% this activity at a dose of 20 mg/kg (FIG. 2A). FIG. 2 represents the effects of Compound 2K, at the three doses tested, on plasma prednisolone/prednisone ratio calculated with the area under the curve between 30 minutes and 4 hours (panel A) and on plasma exposure during the 6-hour experimental period (panel B); the results obtained with Compound 1K at a dose of 5 mg/kg are compared in the two panels.

[4] = Clinical and behavioral signs in cynomolgus monkeys during the prednisone challenge studies; conditions: study no. 1, 1.25, 5 and 20 mg/kg
Description: as §3, §4

[5] = mice, 1 h, read-out: Plasma 1 h % inh.
[6] = mice, 4 h, read-out: Plasma 4 h % inh.
[7] = mouse plasma (2% final volume), 1 h after 0.63 mg/kg oral
[8] = mouse plasma, 1 h after 2.5 mg/kg oral
[9] = mouse plasma, 1 h after 10 mg/kg oral
[10] = mouse plasma, 1 h after 40 mg/kg oral
[11] = mouse plasma, 4 h after 0.63 mg/kg oral
[12] = mouse plasma, 4 h after 2.5 mg/kg oral
[13] = mouse plasma, 4 h after 10 mg/kg oral
[14] = mouse plasma, 4 h after 40 mg/kg oral

T1 sequence (P28845 whole entry): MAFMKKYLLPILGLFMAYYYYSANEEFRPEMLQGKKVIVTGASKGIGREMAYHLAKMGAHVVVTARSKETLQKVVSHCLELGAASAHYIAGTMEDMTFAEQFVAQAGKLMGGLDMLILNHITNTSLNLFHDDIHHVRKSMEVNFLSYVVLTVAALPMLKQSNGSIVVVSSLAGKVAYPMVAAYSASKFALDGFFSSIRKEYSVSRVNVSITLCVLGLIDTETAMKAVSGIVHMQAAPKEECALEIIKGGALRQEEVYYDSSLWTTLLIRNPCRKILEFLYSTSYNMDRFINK

SMILES | % inhibition at 1 h (human 11β-HSD type 1 [1]; [7]) | % inhibition at 1 h (human 11β-HSD type 1 [1]; [8]) | % inhibition at 1 h (human 11β-HSD type 1 [1]; [9]) | % inhibition at 1 h (human 11β-HSD type 1 [1]; [10]) | % inhibition at 4 h (human 11β-HSD type 1 [1]; [11]) | % inhibition at 4 h (human 11β-HSD type 1 [1]; [12]) | % inhibition at 4 h (human 11β-HSD type 1 [1]; [13]) | % inhibition at 4 h (human 11β-HSD type 1 [1]; [14]) | % inhibition after 4 h (human 11β-HSD type 1 [3]; 4 h after 0.63 mg/kg oral) | % inhibition after 4 h (human 11β-HSD type 1 [3]; 4 h after 2.5 mg/kg oral) | % inhibition after 4 h (human 11β-HSD type 1 [3]; 4 h after 10 mg/kg oral) | % inhibition after 4 h (human 11β-HSD type 1 [3]; 4 h after 40 mg/kg oral) | inhibition of plasma prednisolone/prednisone ratio of AUC (30 minutes to 4 hours) (11β-HSD type 1; 20 mg/kg) | also measured
CN1C(C(=O)c2ccc3ccccc3c2)=C(O)c2ccccc2S1(=O)=O [Compound 1, (4-hydroxy-2-methyl-1,1-dioxido-2H-benzo[e][1,2]thiazin-3-yl)(naphthalen-2-yl)methanone] | 40% | 64% | 81% | 93% | 31% | 60% | 81% | 94% | 8% | 36% | 63% | 79% | 34% | inhibition at 2.5 mg/kg (human 11β-HSD type 1 [1]; [5]): 65 ± 8%; inhibition at 2.5 mg/kg (human 11β-HSD type 1 [1]; [6]): 58 ± 5%; inhibition at 10 mg/kg (human 11β-HSD type 1 [1]; [5]): 75 ± 8%; inhibition at 10 mg/kg (human 11β-HSD type 1 [1]; [6]): 73 ± 4%; dose as of which plasma of treated mice inhibits 11β-HSD type 1 (human 11β-HSD type 1 [1]; mice, single oral administration): 0.63 mg/kg; Plasma 1 h ([2]; 2.5 mg/kg oral): 2598 ± 1478 ng/mL; Plasma 4 h ([2]; 2.5 mg/kg oral): 2205 ± 1250 ng/mL; Plasma 1 h ([2]; 10 mg/kg oral): 3675 ± 1781 ng/mL; Plasma 4 h ([2]; 10 mg/kg oral): 3823 ± 2011 ng/mL; animals that respond favorably to the treatment (11β-HSD type 1; 5 mg/kg): 60%; inhibition of the prednisolone/prednisone ratio in animals that respond favorably (11β-HSD type 1; 5 mg/kg): 28%; animals that respond favorably to the treatment (11β-HSD type 1; 20 mg/kg): 80%; inhibition of the prednisolone/prednisone ratio in animals that respond favorably (11β-HSD type 1; 20 mg/kg): 46%; dose as of which inhibition of 11β-HSD type 1 is significant and dose-dependent (11β-HSD type 1; doses 1.25, 5 and 20 mg/kg): 5 mg/kg; clinical or behavioral sign [4]: No particular clinical or behavioral sign
CN1C(C(=O)c2ccc(-c3ccc(C#N)cc3)cc2)=C([O-])c2ccccc2S1(=O)=O.[K+] [Compound 2K, potassium 3-(4′-cyanobiphenyl-4-carbonyl)-2-methyl-2H-benzo[e][1,2]thiazin-4-olate 1,1-dioxide, reference compound] | 26% | 63% | 84% | – | 29% | 65% | 86% | – | 17% | 46% | 72% | – | roughly 50% | activity on conversion of prednisone to prednisolone (11β-HSD type 1; doses below 20 mg/kg (1.25, 5 mg/kg)): inactive
C1CCc2nnc(C34CC5CC(CC(C5)C3)C4)n2CC1 [Compound 3, 3-(1-adamantyl)-6,7,8,9-tetrahydro-5H-[1,2,4]triazolo[4,3-a]azepine, reference compound] | – | – | 93% | 98% | – | – | 22% | 68% | – | – | 15% | 8% | – | % inhibition at 1 h (human 11β-HSD type 1 [1]; mouse plasma, 1 h after 80 mg/kg oral): 101%; % inhibition at 4 h (human 11β-HSD type 1 [1]; mouse plasma, 4 h after 80 mg/kg oral): 94%; % inhibition after 4 h (human 11β-HSD type 1 [3]; 4 h after 80 mg/kg oral): 13%
